Consider two substances from US11840560B2, “Prodrugs and uses thereof” (Novo Nordisk A/S, priority 2022, dated 2023).

*1 amine or outer side, *2 acyl side, *3 side chain or, on linkers, in order; H or OH if unused. Side-chain parts run from the residue outwards. [ ]: non-standard residue; d: D form. The star is where a group is joined. C16 diacid = O=C(O)CCCCCCCCCCCCCCC(=O)*; γGlu = O=C(O)[C@H](CCC(=O)[*:2])N[*:1]; AEEA = NCCOCCOCC(=O)O; Aib = CC(C)(N)C(=O)O; Sar = CNCC(=O)O

Data set [1] is described as follows: in vivo. To be noted: female, Göttingen, minipig, iv. Also on record: species or system Göttingen minipigs. The method, then: The purpose of this method is to determine the half-life in vivo of the derivatives of the present invention after i.v. administration to minipigs, i.e. the prolongation of their time in the body and thereby their time of action. This is done in a pharmacokinetic (PK) study, where the terminal half-life of the derivative in question is determined. By terminal half-life is generally meant the period of time it takes to halve a certain plasma concentration, measured after the initial distribution phase.
Female Göttingen minipigs were obtained from Ellegaard Göttingen Minipigs (Dalmose, Denmark) approximately 7-14 months of age and weighing from approximately 16-35 kg were used in the studies. The minipigs were housed individually and fed restrictedly once daily with SDS minipig diet (Special Diets Services, Essex, UK).
After at 3 weeks of acclimatisation two permanent central venous catheters were implanted in vena cava caudalis in each animal. The animals were allowed 1 week recovery after the surgery, and were then used for repeated pharmacokinetic studies with a suitable wash-out period between successive derivative dosing.
The animals were fasted for approximately 18 hours before dosing and from 0 to 4 hours after dosing but had ad libitum access to water during the whole period.
The sodium salts of compounds of Examples 1 were prepared using method SX_A under General Methods for preparation of the compounds of the invention. The resulting sodium salts were dissolved to a concentration of 50-300 nmol/mL in a buffer containing 0.007% polysorbate 20, 50 mM sodium phosphate, 70 mM sodium chloride, pH 7.4. Intravenous injections (the volume corresponding to usually 1-20 nmol/kg, for example 0.02-0.05 mL/kg) of the compounds were given through one catheter, and blood was sampled at predefined time points for up to 21 days post dosing (preferably through the other catheter). Blood samples (for example 0.8 mL) were collected in 8 mM EDTA buffer and then centrifuged at 4° C. and 1942 g for 10 minutes.
Plasma was pipetted into Micronic tubes on dry ice and kept at −20° C. until analysed for plasma concentration of the compounds using ELISA, or a similar antibody-based assay, or LCMS. Individual plasma concentration-time profiles were analysed by a non-compartmental model in Phoenix WinNonLin ver. 6.4. (Pharsight Inc., Mountain View, CA, USA), and the resulting terminal half-lives (harmonic mean) determined.
The terminal half-lives and/or the observed terminal half-lives, measured as described herein in General Methods for Measuring Terminal Half-Life in Minipigs are shown in Table 7. […] This provides evidence that conversion of prodrug to parent compound is occurring in vivo. The terminal half-life of the prodrug may be faster or slower than the corresponding parent compound due to the contribution of conversion on the terminal half-life of the prodrug.

The next data set in a line: physchem. The class given is physicochemical. The conditions noted are these: buffer, pH 7.4. In short, it runs like this: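 Prodrugs at 100 μM were incubated in PBS, pH 7.4, at 37° C, with aliquots taken every 24–72 h for LCMS with UV detection at 214 nm. The ratio of prodrug AUC to total prodrug + drug + DKP AUC was calculated. Half-life came from a linear regression of −ln(ratio) versus time.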

Data set [2] in a line: in vivo. To be noted: dog, po, 300 mg; for Tmax / half-life: male, beagle. Also on record: species or system beagle dogs. In short, it runs like this:
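Fasted male beagle dogs (groups of 6-8) were given a single oral tablet of 2-4 mg compound with 300 mg SNAC, optionally preceded 10 min earlier by ~3 nmol/kg SEQ ID NO.: 7 s.c. EDTA plasma was sampled for up to 600 hours and analysed by LC-MS for terminal half-life and exposure.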

For orientation: half-life means how long it takes for the measured level to halve. A word on the Tmax: it is the time at which the peak concentration occurs. In the data set “in vivo [1]”, “H-K([γGlu-C16 diacid])[Sar]Y[Aib]EGTFTSDYSILLEEQAAREFIEWLLAGGPSK([AEEA-AEEA-γGlu-C16 diacid])GAPPPS-OH [Compound 3]” showed a half-life of 119 h. This substance also had a half-life at 100 μM in “physchem” of 111 h. Moreover, in “in vivo [2]”, the AUC/Dose came out at 38.5 kg·h/L, the Cmax/Dose amounted to 0.32 kg/L, the Tmax turned out to be 7 h and the half-life is 139 h.
Turning to “H-[dK]([γGlu-C16 diacid])[Sar]Y[Aib]EGTFTSDYSILLEEQAAREFIEWLLAGGPSK([AEEA-AEEA-γGlu-C16 diacid])GAPPPS-OH [Compound 1]”, the half-life in the data set “in vivo [1]” was 118 h. The half-life at 100 μM in the data set “physchem” is 244 h. In the data set “in vivo [2]”, the AUC/Dose came to 41.2 kg·h/L, the Cmax/Dose stood at 0.66 kg/L, the Tmax came to 4 h and the half-life was 146 h.
